Laboratory results taken from patent US20080293712A1, “Benzo[C][2,7]Naphtyridine Derivatives, Methods of Making Thereof and Methods of Use Thereof” (WYETH, priority 2007, published 2008).

Tests used:
Assay type in all cases: biochemical
PDK-1 = target: T1, PDK-1 (Homo sapiens, UniProt O15530); assay: PDK-1 kinase inhibition ELISA assay (phosphorylation of His6-tagged SGK1 S422D by PDK-1); settings: PDK-1 ELISA, Table 11; read-out: Average IC50
T1 sequence (O15530 1-556): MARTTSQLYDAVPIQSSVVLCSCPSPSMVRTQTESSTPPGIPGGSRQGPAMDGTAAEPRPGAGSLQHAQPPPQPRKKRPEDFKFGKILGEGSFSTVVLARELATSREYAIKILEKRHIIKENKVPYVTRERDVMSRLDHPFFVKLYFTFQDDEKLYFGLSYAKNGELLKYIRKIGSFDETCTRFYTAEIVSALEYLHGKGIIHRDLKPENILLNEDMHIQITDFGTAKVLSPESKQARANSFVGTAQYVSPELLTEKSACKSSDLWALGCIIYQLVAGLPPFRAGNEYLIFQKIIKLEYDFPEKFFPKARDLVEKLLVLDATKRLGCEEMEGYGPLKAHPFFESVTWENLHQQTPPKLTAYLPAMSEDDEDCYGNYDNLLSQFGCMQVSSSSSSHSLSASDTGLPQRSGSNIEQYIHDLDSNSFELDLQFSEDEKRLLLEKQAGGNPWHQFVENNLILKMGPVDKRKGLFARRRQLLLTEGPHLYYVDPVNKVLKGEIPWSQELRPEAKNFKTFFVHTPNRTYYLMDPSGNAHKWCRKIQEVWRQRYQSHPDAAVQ
Description: In an in vitro assay, His6-tagged SGK1 with S422D mutation (formerly Upstate Biotech, now Millipore) on Thr256 is allowed to be phosphorylated by PDK-1 in the presence of a Benzo[c][2,7]naphthyridine Derivative. After 20 minutes, the reaction is quenched via the addition of urea. The His6-tagged SGK1 is then bound to 96 well Ni-NTA HisSorb plates (Quiagen, Inc., Valencia, Calif.) and phosphorylated SGK1 is quantitatively detected using rabbit derived anti-phospho SGK antibody (Cell Signaling Technology, Danvers, Mass.) as the primary antibody and horseradish peroxidase (HRP)—coupled anti-rabbit antibody (formerly Zymed, now Invitrogen, Carlsbad, Calif.) as the secondary antibody. HRP is then detected using a chemiluminescent substrate (Pierce Chemical Co., Woburn, Mass.).

PKA = PKA (Homo sapiens, UniProt P17612); assay: PKA kinase inhibition, Z'-LYTE FRET assay
Text: Z′-Lyte™ assay is an in vitro FRET-based assay that utilizes differential sensitivity of phosphorylated and non-phosphorylated peptides to proteolytic cleavage. The peptide substrate (also available from Invitrogen for each of PKA, Akt1 and S6K) is labeled with two different fluorophores, a fluorescence donor at one end of the peptide and a fluorescence acceptor at the other end of the peptide. In the primary kinase reaction, the kinase phosphorylates the peptide substrate in the presence of ATP. In the secondary reaction, a site-specific protease recognizes and cleaves non-phosphorylated peptides, but not phosphorylated peptides. Cleavage disrupts FRET between the donor and acceptor fluorophores on the peptide, whereas uncleaved phosphorylated peptides maintain FRET. Based on a formula that uses the ratio of donor emission (at 460 nm) to acceptor emission (at 535 nM) after excitation of the donor fluorophore at 400 nm, the extent of phosphorylation of the peptide substrates is calculated.

Akt1 = Akt1 (Homo sapiens, UniProt P31749); assay: Akt1 kinase inhibition, Z'-LYTE FRET assay; settings: 100 μM ATP
Text: (§1) The ability of illustrative Benzo[c][2,7]naphthyridine Derivatives to inhibit PKA, Akt1, S6K in vitro can be determined using a Fluorescence Resonance Energy Transfer (FRET) assay, such as a Z′-LYTE™ Kinase Assay Platform, commercially available from Invitrogen (c.f. Rodems et al., ASSAY Drug Devel. Technol. 1:9-19 (2002) and Zhang et al., J. Biomol. Screen. 4:67-73 (1999)). Z′-Lyte™ assay is an in vitro FRET-based assay that utilizes differential sensitivity of phosphorylated and non-phosphorylated peptides to proteolytic cleavage. The peptide substrate (also available from Invitrogen for each of PKA, Akt1 and S6K) is labeled with two different fluorophores, a fluorescence donor at one end of the peptide and a fluorescence acceptor at the other end of the peptide. In the primary kinase reaction, the kinase phosphorylates the peptide substrate in the presence of ATP. In the secondary reaction, a site-specific protease recognizes and cleaves non-phosphorylated peptides, but not phosphorylated peptides. Cleavage disrupts FRET between the donor and acceptor fluorophores on the peptide, whereas uncleaved phosphorylated peptides maintain FRET. Based on a formula that uses the ratio of donor emission (at 460 nm) to acceptor emission (at […]) after excitation of the donor fluorophore at 400 nm, the extent of phosphorylation of the peptide substrates is calculated. IC50 values of illustrative Benzo[c][2,7]naphthyridine Derivatives, shown in Table 12, are calculated using LSW Data Analysis package add-in for Excel (Microsoft).

S6K = S6K (Homo sapiens, UniProt P23443); assay: S6K kinase inhibition, Z'-LYTE FRET assay; settings: 100 μM ATP
Text: as §1

Sequence of S6K (P23443 whole entry): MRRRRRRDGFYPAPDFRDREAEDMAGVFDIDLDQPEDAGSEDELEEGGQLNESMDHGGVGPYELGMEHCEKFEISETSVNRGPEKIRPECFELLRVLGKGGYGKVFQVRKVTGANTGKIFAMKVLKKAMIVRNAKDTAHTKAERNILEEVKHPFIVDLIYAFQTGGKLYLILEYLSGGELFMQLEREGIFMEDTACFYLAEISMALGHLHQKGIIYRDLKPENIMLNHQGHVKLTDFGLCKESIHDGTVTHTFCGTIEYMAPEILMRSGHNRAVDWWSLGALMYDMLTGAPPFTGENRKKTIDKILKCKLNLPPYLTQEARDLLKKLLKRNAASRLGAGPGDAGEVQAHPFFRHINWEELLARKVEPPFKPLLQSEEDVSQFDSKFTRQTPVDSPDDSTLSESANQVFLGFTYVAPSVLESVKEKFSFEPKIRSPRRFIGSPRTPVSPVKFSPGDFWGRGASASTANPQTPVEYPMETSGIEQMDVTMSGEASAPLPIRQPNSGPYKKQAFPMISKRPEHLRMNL
Sequence of Akt1 (P31749 whole entry, species assumed): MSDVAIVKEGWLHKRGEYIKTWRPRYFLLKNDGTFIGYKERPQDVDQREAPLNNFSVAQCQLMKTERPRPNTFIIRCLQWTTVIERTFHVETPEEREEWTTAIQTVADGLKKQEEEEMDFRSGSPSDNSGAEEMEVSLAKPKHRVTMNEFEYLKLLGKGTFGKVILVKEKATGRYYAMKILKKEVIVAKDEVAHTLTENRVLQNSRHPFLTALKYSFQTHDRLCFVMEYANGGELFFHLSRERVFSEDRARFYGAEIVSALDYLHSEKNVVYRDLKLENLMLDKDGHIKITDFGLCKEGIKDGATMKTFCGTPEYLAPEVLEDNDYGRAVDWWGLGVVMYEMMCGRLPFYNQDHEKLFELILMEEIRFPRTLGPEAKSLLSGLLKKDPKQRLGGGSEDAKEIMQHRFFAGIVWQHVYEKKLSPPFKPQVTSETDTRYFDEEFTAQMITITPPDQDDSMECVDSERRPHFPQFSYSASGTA

Row | SMILES | IC50 (PDK-1) [nM] | IC50 (PKA; 20 μM ATP) [nM] | IC50 (PKA; 100 μM ATP) [nM] | IC50 (Akt1) [nM] | IC50 (S6K) [nM]
1 | COc1cc2c(cc1OCCCCl)ncc1c(N)nc(-n3ccnc3)cc12 [Ia-17, 8-(3-Chloropropoxy)-2-(1H-imidazol-1-yl)-9-methoxybenzo[c][2,7]naphthyridin-4-amine] | 105 | > 10000 | > 2000 | 280 | > 2000
2 | COc1cc2ncc3c(N)nc(-c4cncc(OC[C@@H](N)CN5CCc6ccccc6C5)c4)cc3c2cc1OC [Ib-50, 2-(5-{[(2S)-2-amino-3-(3,4-dihydroisoquinolin-2(1H)-yl)propyl]oxy}pyridin-3-yl)-8,9-dimethoxybenzo[c]-2,7-naphthyridin-4-amine] | 61 | 2100 | > 2000 | 160 | 220
3 | COc1cc2ncc3c(N)nc(-c4cncc(OC[C@@H](N)COCc5ccccc5)c4)cc3c2cc1OC [Ib-51, 2-(5-{[(2S)-2-amino-3-(benzyloxy)propyl]oxy}pyridin-3-yl)-8,9-dimethoxybenzo[c]-2,7-naphthyridin-4-amine] | 5 | 340 | 712 | < 160 | 60
4 | COc1cc2ncc3c(N)nc(-c4cncc(OC[C@@H](N)Cc5ccc(O)cc5)c4)cc3c2cc1OC [Ib-53, 4-((2S)-2-Amino-3-{[5-(4-amino-8,9-dimethoxybenzo[c]-2,7-naphthyridin-2-yl)pyridin-3-yl]oxy}propyl)phenol] | 17 | 400 | > 2000 | 15 | 86
5 | COc1cc2ncc3c(N)nc(-c4cncc(OC[C@H]5CCCN5)c4)cc3c2cc1OC [Ib-61, 8,9-dimethoxy-2-{5-[(2R)-pyrrolidin-2-ylmethoxy]pyridin-3-yl}benzo[c]-2,7-naphthyridin-4-amine] | 43 | 1500 | > 2000 | 250 | 7 to 82
6 | COc1cc2ncc3c(N)nc(-c4cncc(OC[C@H](N)CN5Cc6ccccc6C5)c4)cc3c2cc1OC [Ib-48, 2-(5-{[(2R)-2-amino-3-(1,3-dihydro-2H-isoindol-2-yl)propyl]oxy}pyridin-3-yl)-8,9-dimethoxybenzo[c]-2,7-naphthyridin-4-amine] | 34 | 2700 | > 2000 | 400 | 405
7 | COc1cc2c(cc1OCCCN1CCCC1)ncc1c(N)nc(-c3cccnc3)cc12 [Ia-31, 9-Methoxy-2-pyridin-3-yl-8-(3-pyrrolidin-1-ylpropoxy)benzo[c]-2,7-naphthyridin-4-amine] | 120 | > 20000 | > 2000 | 170 | 422
8 | COc1cc2ncc3c(N)nc(-c4cncn4C)cc3c2cc1OC [Ib-63, 8,9-Dimethoxy-2-(1-methyl-1H-imidazol-5-yl)benzo[c]-2,7-naphthyridin-4-amine] | 66 | > 20000 | > 2000 | 400 | 1270
9 | Nc1nc(-c2cncc(OC[C@@H](N)Cc3ccccc3)c2)cc2c1cnc1cc(C#CCCn3ccnc3)ccc12 [Ia-5, 2-(5-{[(2S)-2-Amino-3-phenylpropyl]oxy}pyridin-3-yl)-8-[4-(1H-imidazol-1-yl)but-1-yn-1-yl]benzo[c]-2,7-naphthyridin-4-amine] | – | 340 | 872 | 500 | 520
10 | COc1cc2c(cc1OCCCl)ncc1c(N)nc(-n3ccnc3)cc12 [Ia-21, 8-(2-chloroethoxy)-2-(1H-imidazol-1-yl)-9-methoxybenzo[c][2,7]naphthyridin-4-amine] | 65 | > 20000 | > 2000 | 300 | 1560
11 | COc1cc2c(cc1O)ncc1c(N)nc(-n3ccnc3)cc12 [Ia-33, 4-Amino-2-(1H-imidazol-1-yl)-9-methoxybenzo[c]-2,7-naphthyridin-8-ol] | 90 | 2500 | > 2000 | 2000 | > 2000
12 | COCCN(C[C@H](N)COc1cncc(-c2cc3c(cnc4cc(OC)c(OC)cc43)c(N)n2)c1)c1ccccc1 [Ib-34, (2S)-3-{[5-(4-amino-8,9-dimethoxybenzo[c]-2,7-naphthyridin-2-yl)pyridin-3-yl]oxy}-N1-(2-methoxyethyl)-N1-phenylpropane-1,2-diamine] | 6 | < 32 | 116 | – | 61 to 130
13 | COc1cc2ncc3c(N)nc(-c4cncc(OC[C@@H](N)CNc5cccc(F)c5)c4)cc3c2cc1OC [Ib-36, (2S)-3-{[5-(4-amino-8,9-dimethoxybenzo[c]-2,7-naphthyridin-2-yl)pyridin-3-yl]oxy}-N1-(3-fluorophenyl)propane-1,2-diamine] | 4 | < 32 | 223 | – | 30 to 133
14 | COc1cc2ncc3c(N)nc(-c4cncc(OC[C@H](N)Cc5ccc(F)cc5)c4)cc3c2cc1OC [Ib-47, 2-(5-{[(2R)-2-amino-3-(4-fluorophenyl)propyl]oxy}pyridin-3-yl)-8,9-dimethoxybenzo[c]-2,7-naphthyridin-4-amine] | 15 | 25 | 251 | 12 | 93
15 | COc1cc2ncc3c(N)nc(-c4cncc(OC[C@@H](N)Cc5ccccc5Cl)c4)cc3c2cc1OC [Ib-52, 2-(5-{[(2S)-2-amino-3-(2-chlorophenyl)propyl]oxy}pyridin-3-yl)-8,9-dimethoxybenzo[c]-2,7-naphthyridin-4-amine] | 8 | 45 | 793 | 6.4 | 106
16 | COc1cc2ncc3c(N)nc(-c4cncc(OC[C@@H](N)Cc5ccc(F)cc5)c4)cc3c2cc1OCc1ccccc1 [Ia-1, 2-(5-{[(2S)-2-Amino-3-(4-fluorophenyl)propyl]oxy}pyridin-3-yl)-9-(benzyloxy)-8-methoxybenzo[c]-2,7-naphthyridin-4-amine] | > 100 | – | > 2000 | – | > 2000
17 | Nc1nc(-n2ccnc2)cc2c1cnc1cc(/C=C/CCN3CCCC3)ccc12 [Ia-24, 2-(1H-imidazol-1-yl)-8-[(1E)-4-pyrrolidin-1-ylbut-1-en-1-yl]benzo[c]-2,7-naphthyridin-4-amine] | 97 | 240 | > 2000 | 75 | 1030
